Source: patent US12304881B2, “Trientine tetrahydrochloride and a method of preparation and a pharmaceutical composition thereof” (Yu-Jet Co., Ltd., priority 2022, dated 2025)
Counter-ions that a name gives are not always drawn.

Assays:
[1] = as disclosed in CN102924289B; cited from earlier work

Structure (SMILES) | stability, compared between hydrochloride salts [1] | stability (impurity by TLC) in words
NCCNCCNCCN [TETA·2HCl, trientine dihydrochloride] | worse than that of TETA·4HCl | 
NCCNCCNCCN [TETA·4HCl Form N, trientine tetrahydrochloride] |  | good enough
